Article PMC3527569, “Anti-Inflammatory and Vasoprotective Activity of a Retroviral-Derived Peptide, Homologous to Human Endogenous Retroviruses: Endothelial Cell Effects” (PLoS ONE, 2012)
Where a SMILES comes first, the peptide text is derived from it. Bridges are numbered along the chain shown (N, C = ends). Roman numbers before positions name the chains, in order.

Tests used:
[1] = reason why binding studies were performed at 37°C
[2] = test system: dermal vascular leak; experiment: Reverse passive Arthus reaction, dermal vascular leak; type: in vivo, guinea pig (Hartley)
Description: Eighteen hours later both flanks of the animals were shaved and 6.25 or 12.5 µl of rabbit anti-BSA antiserum was injected intradermally (i.d.) at two sites, one on each flank. The animals were then injected i.v. with 1 ml of PBS containing BSA (1 mg/ml) and Evans Blue dye (2 mg/ml; Sigma; St. Louis, MO). Six hours later the animals were euthanized, the skin removed, and the level of induration determined as the diameter (mm) of the extravasation for each site measured on the ventral surface of the skin.

CC(C)C[C@H](NC(=O)CNC(=O)CNC(=O)[C@H](CCC(=O)O)NC(=O)[C@H](CCCCN)NC(=O)[C@H](CC(C)C)NC(=O)[C@H](Cc1ccccc1)NC(=O)[C@H](CC(C)C)NC(=O)[C@H](CC(C)C)NC(=O)[C@H](CC(=O)O)NC(=O)[C@H](CC(C)C)NC(=O)CNC(=O)[C@H](CCCNC(=N)N)NC(=O)[C@H](CCCNC(=N)N)NC(=O)[C@H](CC(N)=O)NC(=O)[C@H](CCC(N)=O)NC(=O)[C@@H](N)CC(C)C)C(=O)N[C@@H](CSSC[C@H](NC(=O)[C@H](CC(C)C)NC(=O)CNC(=O)CNC(=O)[C@H](CCC(=O)O)NC(=O)[C@H](CCCCN)NC(=O)[C@H](CC(C)C)NC(=O)[C@H](Cc1ccccc1)NC(=O)[C@H](CC(C)C)NC(=O)[C@H](CC(C)C)NC(=O)[C@H](CC(=O)O)NC(=O)[C@H](CC(C)C)NC(=O)CNC(=O)[C@H](CCCNC(=N)N)NC(=O)[C@H](CCCNC(=N)N)NC(=O)[C@H](CC(N)=O)NC(=O)[C@H](CCC(N)=O)NC(=O)[C@@H](N)CC(C)C)C(=O)O)C(=O)O [MN10021] (I: H-LQNRRGLDLLFLKEGGLC-OH / II: H-LQNRRGLDLLFLKEGGLC-OH; disulfide I:18-II:18)
solubility at lower temperatures [1]: insolubility | block of vascular leak, challenge 6.25 µl anti-BSA ([2]; 250 or 500 µg s.c. 18 h before challenge, Evans Blue extravasation diameter at 6 h): completely blocked | block of vascular leak, challenge 12.5 µl anti-BSA ([2]; only the highest dose (500 µg) s.c. 18 h before challenge, Evans Blue extravasation at 6 h): completely blocked
